The target in experiment [1] is T1, Potassium voltage-gated channel subfamily A member 3 (Homo sapiens, UniProt P22001). Set-up: species or system Blood.
In experiment [2] the target is T1, Potassium voltage-gated channel subfamily A member 3. It counts as cell-based, CHO-K1.
For experiment [3] the target is unchanged. Description: cell-based. Also noted: species or system Blood.

T1 sequence (P22001 whole entry): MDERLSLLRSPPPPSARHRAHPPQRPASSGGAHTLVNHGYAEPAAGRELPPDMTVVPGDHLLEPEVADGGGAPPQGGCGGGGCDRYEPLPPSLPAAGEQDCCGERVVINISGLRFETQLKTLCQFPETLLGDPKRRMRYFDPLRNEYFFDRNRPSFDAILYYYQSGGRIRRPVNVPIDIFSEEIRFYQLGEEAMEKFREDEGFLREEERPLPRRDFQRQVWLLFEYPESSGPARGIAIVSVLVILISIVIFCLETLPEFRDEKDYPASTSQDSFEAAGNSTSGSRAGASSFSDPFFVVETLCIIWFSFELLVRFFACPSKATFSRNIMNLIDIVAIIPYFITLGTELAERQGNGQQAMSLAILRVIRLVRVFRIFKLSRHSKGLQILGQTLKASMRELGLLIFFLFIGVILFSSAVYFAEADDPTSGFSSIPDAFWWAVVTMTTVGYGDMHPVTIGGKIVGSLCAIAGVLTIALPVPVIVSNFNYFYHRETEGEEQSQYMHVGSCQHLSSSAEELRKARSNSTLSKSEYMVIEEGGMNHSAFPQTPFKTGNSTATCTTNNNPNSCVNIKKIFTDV

On to `CC[C@H](C)[C@@H]1NC(=O)[C@@H](NC(=O)[C@H](CO)NC(=O)[C@@H](N)CCCNC(=N)N)CSSC[C@@H](C(=O)O)NC(=O)[C@H]([C@@H](C)O)NC(=O)CNC(=O)[C@@H]2CSSC[C@@H]3NC(=O)[C@H](CCC(N)=O)NC(=O)[C@H](Cc4ccccc4)NC(=O)[C@H](C)NC(=O)[C@H]([C@@H](C)O)NC(=O)[C@H](CSSC[C@H](NC(=O)[C@H](Cc4ccccc4)NC(=O)[C@H](CO)NC(=O)[C@H](CC(C)C)NC(=O)[C@H](CCCNC(=N)N)NC(=O)[C@H](Cc4ccc(O)cc4)NC(=O)[C@H](CCCCN)NC(=O)[C@H](CCSC)NC(=O)[C@H](CO)NC(=O)[C@H](Cc4cnc[nH]4)NC(=O)[C@H](CCCCN)NC3=O)C(=O)N[C@@H](CCCNC(=N)N)C(=O)N[C@@H](CCCCN)C(=O)N[C@@H]([C@@H](C)O)C(=O)N2)NC(=O)[C@H](CCCNC(=N)N)NC(=O)[C@H](Cc2cccc3ccccc23)NC(=O)[C@H](CCCCN)NC(=O)[C@@H]2CCCN2C(=O)[C@H]([C@@H](C)CC)NC(=O)[C@H]([C@@H](C)O)NC(=O)[C@H](CC(=O)O)NC1=O`, for which the IC50 (in general, the concentration that inhibits the measured activity by half) in experiment [1] was determined as 255 pM; in experiment [2], 216 pM.

In the case of `CC[C@H](C)[C@@H]1NC(=O)[C@@H](NC(=O)[C@H](CO)NC(=O)[C@H](C)N)CSSC[C@@H](C(=O)O)NC(=O)[C@H]([C@@H](C)O)NC(=O)CNC(=O)[C@@H]2CSSC[C@@H]3NC(=O)[C@H](CCC(N)=O)NC(=O)[C@H](Cc4ccccc4)NC(=O)[C@H](C)NC(=O)[C@H]([C@@H](C)O)NC(=O)[C@H](CSSC[C@H](NC(=O)[C@H](Cc4ccccc4)NC(=O)[C@H](CO)NC(=O)[C@H](CC(C)C)NC(=O)[C@H](CCCNC(=N)N)NC(=O)[C@H](Cc4ccc(O)cc4)NC(=O)[C@H](CCCCN)NC(=O)[C@H](CCSC)NC(=O)[C@H](CO)NC(=O)[C@H](Cc4cnc[nH]4)NC(=O)[C@H](CCCCN)NC3=O)C(=O)N[C@@H](CCCNC(=N)N)C(=O)N[C@@H](CCCCN)C(=O)N[C@@H]([C@@H](C)O)C(=O)N2)NC(=O)[C@H](CCCNC(=N)N)NC(=O)[C@H](CO)NC(=O)[C@H](CCCCN)NC(=O)[C@@H]2CCCN2C(=O)[C@H]([C@@H](C)CC)NC(=O)[C@H]([C@@H](C)O)NC(=O)[C@H](CC(=O)O)NC1=O`, the values for the 50% inhibitory concentration (IC50) in experiment [3] and in experiment [2] were 61 pM and 166 pM, respectively.

With `CC[C@H](C)[C@@H]1NC(=O)[C@@H](NC(=O)[C@H](CO)NC(=O)[C@@H](N)CCCNC(=N)N)CSSC[C@@H](C(=O)O)NC(=O)[C@H]([C@@H](C)O)NC(=O)CNC(=O)[C@@H]2CSSC[C@@H]3NC(=O)[C@H](CCC(N)=O)NC(=O)[C@H](Cc4ccccc4)NC(=O)[C@H](C)NC(=O)[C@H]([C@@H](C)O)NC(=O)[C@H](CSSC[C@H](NC(=O)[C@H](Cc4ccccc4)NC(=O)[C@H](CO)NC(=O)[C@H](CC(C)C)NC(=O)[C@H](CCCNC(=N)N)NC(=O)[C@H](Cc4ccc(O)cc4)NC(=O)[C@H](CCCCN)NC(=O)[C@H](CCSC)NC(=O)[C@H](CO)NC(=O)[C@H](Cc4cnc[nH]4)NC(=O)[C@H](CCCCN)NC3=O)C(=O)N[C@@H](CCCNC(=N)N)C(=O)N[C@@H](CCCNC(=N)N)C(=O)N[C@@H]([C@@H](C)O)C(=O)N2)NC(=O)[C@H](CCCNC(=N)N)NC(=O)[C@H](CO)NC(=O)[C@H](CCCCN)NC(=O)[C@@H]2CCCN2C(=O)[C@H]([C@@H](C)CC)NC(=O)[C@H]([C@@H](C)O)NC(=O)[C@H](CC(=O)O)NC1=O`, the IC50 in experiment [1] came out at 58 pM; in experiment [2], 38 pM.

For `CC[C@H](C)[C@@H]1NC(=O)[C@@H](NC(=O)[C@H](CO)NC(=O)[C@@H](N)CCCNC(=N)N)CSSC[C@@H](C(=O)O)NC(=O)[C@H]([C@@H](C)O)NC(=O)CNC(=O)[C@@H]2CSSC[C@@H]3NC(=O)[C@H](CCC(N)=O)NC(=O)[C@H](Cc4ccccc4)NC(=O)[C@H](C)NC(=O)[C@H]([C@@H](C)O)NC(=O)[C@H](CSSC[C@H](NC(=O)[C@H](Cc4ccccc4)NC(=O)[C@H](CO)NC(=O)[C@H](CC(C)C)NC(=O)[C@H](CCCNC(=N)N)NC(=O)[C@H](Cc4ccc(O)cc4)NC(=O)[C@H](CCCCN)NC(=O)[C@H](CCSC)NC(=O)[C@H](CO)NC(=O)[C@H](Cc4c[nH]cn4)NC(=O)[C@H](CCCCN)NC3=O)C(=O)N[C@@H](CCCNC(=N)N)C(=O)N[C@@H](CCCCN)C(=O)N[C@@H](CCCCN)C(=O)N2)NC(=O)[C@H](CCCNC(=N)N)NC(=O)[C@H](CO)NC(=O)[C@H](CCCCN)NC(=O)[C@@H]2CCCN2C(=O)[C@H]([C@@H](C)CC)NC(=O)[C@H]([C@@H](C)O)NC(=O)[C@H](CC(=O)O)NC1=O`, the IC50 in experiment [1] was determined as 27900 pM; in experiment [3], 5980 pM.

In the case of `CC[C@H](C)[C@@H]1NC(=O)[C@@H](NC(=O)[C@H](CO)NC(=O)[C@@H](N)CCCNC(=N)N)CSSC[C@@H](C(=O)O)NC(=O)[C@H]([C@@H](C)O)NC(=O)CNC(=O)[C@@H]2CSSC[C@@H]3NC(=O)[C@H](CCC(N)=O)NC(=O)[C@H](Cc4ccccc4)NC(=O)[C@H](C)NC(=O)[C@H]([C@@H](C)O)NC(=O)[C@H](CSSC[C@H](NC(=O)[C@H](Cc4ccccc4)NC(=O)[C@H](CO)NC(=O)[C@H](CC(C)C)NC(=O)[C@H](CCCNC(=N)N)NC(=O)[C@H](Cc4ccc(O)cc4)NC(=O)[C@H](CCCCN)NC(=O)[C@H](CCSC)NC(=O)[C@H](CO)NC(=O)[C@H](Cc4cnc[nH]4)NC(=O)[C@H](Cc4cccc5ccccc45)NC3=O)C(=O)N[C@@H](CCCNC(=N)N)C(=O)N[C@@H](CCCCN)C(=O)N[C@@H]([C@@H](C)O)C(=O)N2)NC(=O)[C@H](CCCNC(=N)N)NC(=O)[C@H](CO)NC(=O)[C@H](CCCCN)NC(=O)[C@@H]2CCCN2C(=O)[C@H]([C@@H](C)CC)NC(=O)[C@H]([C@@H](C)O)NC(=O)[C@H](CC(=O)O)NC1=O`, the IC50 in experiment [1] amounted to 375 pM; in experiment [3] it was 419 pM.

For the compound `CC[C@H](C)[C@@H]1NC(=O)[C@@H](NC(=O)[C@H](CO)NC(=O)[C@@H](N)CCCNC(=N)N)CSSC[C@@H](C(=O)O)NC(=O)[C@H]([C@@H](C)O)NC(=O)CNC(=O)[C@@H]2CSSC[C@@H]3NC(=O)[C@H](CCC(N)=O)NC(=O)[C@H](Cc4ccccc4)NC(=O)[C@H](C)NC(=O)[C@H]([C@@H](C)O)NC(=O)[C@H](CSSC[C@H](NC(=O)[C@H](Cc4ccccc4)NC(=O)[C@H](CO)NC(=O)[C@H](CC(C)C)NC(=O)[C@H](CCCNC(=N)N)NC(=O)[C@H](Cc4ccc(O)cc4)NC(=O)[C@H](CCCCN)NC(=O)[C@H](CCSC)NC(=O)[C@H](CO)NC(=O)[C@H](Cc4cnc[nH]4)NC(=O)[C@H](CCCCN)NC3=O)C(=O)N[C@@H](CCC(=O)O)C(=O)N[C@@H](CCCCN)C(=O)N[C@@H]([C@@H](C)O)C(=O)N2)NC(=O)[C@H](CCCNC(=N)N)NC(=O)[C@H](CO)NC(=O)[C@H](CCCCN)NC(=O)[C@@H]2CCCN2C(=O)[C@H]([C@@H](C)CC)NC(=O)[C@H]([C@@H](C)O)NC(=O)[C@H](CC(=O)O)NC1=O`, the 50% inhibitory concentration (IC50) in experiment [1] came to 1960 pM; in experiment [3], 730 pM.

Values taken from ChEMBL document CHEMBL3608278 (J Med Chem, 2015).
